Data published in PubChem BioAssay (NCI).
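Assay format: 96-well plates, 48-hour exposure. GI50 = concentration required for 50% inhibition of growth. TGI denotes the concentration required for complete inhibition of growth.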

Experiments:
Experiment in all cases: growth of human tumour cells (NCI), 48 h
[1] = system: HL-60(TB) leukemia
[2] = system: CAKI-1 renal
[3] = system: MCF7 breast
[4] = system: SW-620 colon
[5] = system: UO-31 renal
[6] = system: SK-OV-3 ovarian
[7] = system: CCRF-CEM leukemia
[8] = system: NCI-H226 lung
[9] = system: M14 melanoma
[10] = system: SR leukemia
[11] = system: SNB-19 CNS
[12] = system: SK-MEL-28 melanoma
[13] = system: SF-268 CNS
[14] = system: HCT-15 colon
[15] = system: HS 578T breast
[16] = system: HT29 colon
[17] = system: T-47D breast
[18] = system: SNB-75 CNS
[19] = system: HCC-2998 colon
[20] = system: OVCAR-5 ovarian
[21] = system: OVCAR-8 ovarian
[22] = system: K-562 leukemia
[23] = system: SK-MEL-5 melanoma
[24] = system: NCI-H23 lung
[25] = system: SF-539 CNS
[26] = system: OVCAR-4 ovarian
[27] = system: MDA-MB-231 breast

In the case of O=C(Cc1ccc(OCc2ccccc2)cc1)NCc1ccc2c(c1)OCO2, the TGI [1] is reported as greater than 100 µM, the GI50 [2] is reported as greater than 100 µM and the TGI [2] is reported as greater than 100 µM. For the same compound, the GI50 [3] was 5.43 µM, the TGI [3] was greater than 100 µM and the GI50 [4] was 7.14 µM. For the same compound, the TGI [4] was greater than 100 µM, the GI50 [5] was greater than 100 µM and the TGI [5] was greater than 100 µM. The GI50 [6] was 8.18 µM, the TGI [6] was greater than 100 µM and the GI50 [7] was greater than 100 µM. For the same compound, the TGI [7] was greater than 100 µM, the GI50 [8] was greater than 100 µM and the TGI [8] was greater than 100 µM. For the same compound, the GI50 [9] was 7.71 µM, the TGI [9] was greater than 100 µM and the GI50 [10] was 5.23 µM. For the same compound, the TGI [10] was greater than 100 µM, the GI50 [11] was 41.9 µM and the TGI [11] was greater than 100 µM. It also gave a GI50 [12] greater than 100 µM, a TGI [12] greater than 100 µM and a GI50 [13] of 6.72 µM. It also gave a TGI [13] greater than 100 µM, a GI50 [14] of 5.31 µM and a TGI [14] greater than 100 µM. For the same compound, the GI50 [15] was 9.82 µM, the TGI [15] was greater than 100 µM and the GI50 [16] was 37.9 µM. The TGI [16] was greater than 100 µM, the GI50 [17] was 48.3 µM and the TGI [17] was greater than 100 µM. The GI50 [18] was 2.17 µM, the TGI [18] was 6.53 µM and the GI50 [19] was greater than 100 µM. For the same compound, the TGI [19] was greater than 100 µM, the GI50 [20] was greater than 100 µM and the TGI [20] was greater than 100 µM. The GI50 [21] was greater than 100 µM, the TGI [21] was greater than 100 µM and the GI50 [22] was 4.64 µM. It also gave a TGI [22] greater than 100 µM, a GI50 [23] of 70.7 µM and a TGI [23] greater than 100 µM. The GI50 [24] was greater than 100 µM, the TGI [24] was greater than 100 µM and the GI50 [25] was 9.11 µM. For the same compound, the TGI [25] was greater than 100 µM, the GI50 [26] was greater than 100 µM and the TGI [26] was greater than 100 µM. The GI50 [27] was 59 µM and the TGI [27] was greater than 100 µM.
